Laboratory results published in patent publication US8969325B2, “TRPV1 antagonists” (AbbVie Inc., priority 2011, dated 2015).

What was measured:
human TRPV1 [1] = biological target: T1, human TRPV1 (Homo sapiens (Human), UniProt Q8NER1); assay: Acid Activation Assay (pH 5.0, intracellular Ca2+, FLIPR); assay type: cell-based; details: percentage of the maximal pH 5.0-induced response remaining; recombinant HEK293 hTRPV1 cells; maximum concentration tested 37.5 μM
Method: Dulbecco's modified Eagle's medium (DMEM) with 4.5 m g/mL D-glucose, fetal bovine serum, L-glutamine, and 2-morpholinoethanesulfonic acid (MES) were purchased from Sigma-Aldrich Co. (St. Louis, Mo.). Dulbecco's phosphate-buffered saline (DPBS) with Ca^2+, Mg^2+, and 1 mg/mL D-glucose (pH 7.4), Geneticin®, 0.25% trypsin-1 mM EDTA, and penicillin-streptomycin were purchased from Invitrogen Corp. (Carlsbad, Calif.). The FLIPR® Calcium 4 assay kit was purchased from Molecular Devices (Sunnyvale, Calif.).
The cDNA for human TRPV1 (hTRPV1) was isolated by reverse transcriptase-polymerase chain reaction (RT-PCR) from human small intestine poly A+ RNA supplied by Clontech (Palo Alto, Calif.) using primers designed surrounding the initiation and termination codons identical to the published sequences (Hayes et al. Pain 2000, 88, 205-215). The resulting cDNA PCR products were subcloned into pCIneo mammalian expression vector (Promega) and fully sequenced using fluorescent dye-terminator reagents (Prism, PerkinElmer Applied Biosystems Division) and a PerkinElmer Applied Biosystems Model 373 DNA sequencer or Model 310 genetic analyzer. Expression plasmids encoding the hTRPV1 cDNA were transfected into HEK293 cells using Lipofectamine®. Forty-eight hours after transfection, the neomycin-resistant cells were selected with growth medium containing 800 μg/mL Geneticin (Life Technologies, formerly Gibco BRL). Surviving individual colonies were isolated and screened for TRPV1 activity. Cells expressing recombinant TRPV1 were maintained at 37° C. in DMEM containing 4 mM L-glutamine, 300 μg/mL G418 (Calbiochem) and 10% fetal bovine serum under a humidified 5% CO2 atmosphere.
The functional activity of compounds at the TRPV1 receptor was determined by measurement of intracellular Ca^2+ levels ([Ca^2+]i) using the Fluorescence Imaging Plate Reader (FLIPR)TETRA®. All compounds were tested over a 12-point one-half-log concentration range with 37.5 μM being the maximum concentration tested. Compound stocks, 10 mM, were prepared in DMSO, and diluted serially across a 384-well plate using a Bravo BenchCel workstation (Agilent Technologies, Santa Clara, Calif.). On the day prior to the experiment, the recombinant HEK293 cells expressing human TRPV1 (hTRPV1) were removed from tissue culture flasks and plated in growth medium into black-walled clear-bottom 384-well Biocoat™ poly-D-lysine assay plates (BD Biosciences, Bedford, Mass.) using a Multidrop® dispenser (ThermoScientific, Waltham, Mass.). On the day of the experiment growth medium was removed, and the no-wash FLIPR® Calcium-4 dye (λEX=470-495 nm, λEM=515-575 nm) was added to each well using the Multidrop® dispenser. The plated cells were incubated for 90-120 min in the dark at 25° C. The test compounds dissolved in DMSO were then added to the plates using an Agilent Bravo workstation (Agilent Technologies Inc., Santa Clara, Calif.). Three minutes later, a pH 5.0 solution was added to each well. Reagents were delivered at a rate of 40 μL/sec, and the final assay volume was 80 μL. Acidic pH solutions were prepared by titration of DPBS/MES with 1 N HCl. The intensity of the fluorescence was captured and digitally transferred to an interfaced PC. The maximum peak measured for the concentration range tested was used to calculate the corresponding peak increase in fluorescence over baseline (relative fluorescence units) which was expressed as the percentage (max % remain) of the maximal pH 5.0-induced response.
Table 1 reports the percentage (max % remain) of the maximal pH 5.0-induced response measured for the compounds tested in the recombinant HEK293 cell assay. Most of the compounds tested inhibited calcium flux only partially following TRPV1 activation by the pH 5.0 solution.

human TRPV1 [2] = biological target: T1, human TRPV1; assay: Capsaicin Activation Assay (intracellular Ca2+, FLIPR); assay type: cell-based; details: recombinant HEK293 cells expressing hTRPV1, 50 nM capsaicin
Method: (Logan, Utah). Dulbecco's phosphate-buffered saline (D-PBS) (with 1 mg/mL glucose and 3.6 mg/l Na pyruvate, without phenol red), L-glutamine, hygromycin B, and Lipofectamine® were obtained from Life Technologies (Grand Island, N.Y.). G418 sulfate was obtained from Calbiochem-Novabiochem Corp. (San Diego, Calif.). […] (St. Louis, Mo.). […] The cDNA for human TRPV1 (hTRPV1) was isolated by reverse transcriptase-polymerase chain reaction (RT-PCR) from human small intestine poly A+ RNA supplied by Clontech (Palo Alto, Calif.) using primers designed surrounding the initiation and termination codons identical to the published sequences (Hayes et al. […] The resulting cDNA PCR products were subcloned into pCIneo mammalian expression vector (Promega) and fully sequenced using fluorescent dye-terminator reagents (Prism, PerkinElmer Applied Biosystems Division) and a PerkinElmer Applied Biosystems Model 373 DNA sequencer or Model 310 genetic analyzer. Expression plasmids encoding the hTRPV1 cDNA were transfected into HEK293 cells using Lipofectamine®. Forty-eight hours after transfection, the neomycin-resistant cells were selected with growth medium containing 800 μg/mL Geneticin (Life Technologies, formerly Gibco BRL). Surviving individual colonies were isolated and screened for TRPV1 activity. […] Compound stocks, 10 mM, were prepared in DMSO, and diluted serially across a 384-well plate using a Bravo BenchCel workstation (Agilent Technologies, Santa Clara, Calif.). […] On the day prior to the experiment, the recombinant HEK293 cells expressing human TRPV1 (hTRPV1) were removed from tissue culture flasks and plated in growth medium into black-walled clear-bottom 384-well Biocoat™ poly-D-lysine assay plates (BD Biosciences, Bedford, Mass.) using a Multidrop® dispenser (ThermoScientific, Waltham, Mass.). […] Molecular Devices, Sunnyvale, Calif.) was added to each well using the Multidrop® dispenser. […] Fluorescence readings were made at 1 to 5 second intervals over the course of the experimental run.

T1 sequence (Q8NER1 whole entry): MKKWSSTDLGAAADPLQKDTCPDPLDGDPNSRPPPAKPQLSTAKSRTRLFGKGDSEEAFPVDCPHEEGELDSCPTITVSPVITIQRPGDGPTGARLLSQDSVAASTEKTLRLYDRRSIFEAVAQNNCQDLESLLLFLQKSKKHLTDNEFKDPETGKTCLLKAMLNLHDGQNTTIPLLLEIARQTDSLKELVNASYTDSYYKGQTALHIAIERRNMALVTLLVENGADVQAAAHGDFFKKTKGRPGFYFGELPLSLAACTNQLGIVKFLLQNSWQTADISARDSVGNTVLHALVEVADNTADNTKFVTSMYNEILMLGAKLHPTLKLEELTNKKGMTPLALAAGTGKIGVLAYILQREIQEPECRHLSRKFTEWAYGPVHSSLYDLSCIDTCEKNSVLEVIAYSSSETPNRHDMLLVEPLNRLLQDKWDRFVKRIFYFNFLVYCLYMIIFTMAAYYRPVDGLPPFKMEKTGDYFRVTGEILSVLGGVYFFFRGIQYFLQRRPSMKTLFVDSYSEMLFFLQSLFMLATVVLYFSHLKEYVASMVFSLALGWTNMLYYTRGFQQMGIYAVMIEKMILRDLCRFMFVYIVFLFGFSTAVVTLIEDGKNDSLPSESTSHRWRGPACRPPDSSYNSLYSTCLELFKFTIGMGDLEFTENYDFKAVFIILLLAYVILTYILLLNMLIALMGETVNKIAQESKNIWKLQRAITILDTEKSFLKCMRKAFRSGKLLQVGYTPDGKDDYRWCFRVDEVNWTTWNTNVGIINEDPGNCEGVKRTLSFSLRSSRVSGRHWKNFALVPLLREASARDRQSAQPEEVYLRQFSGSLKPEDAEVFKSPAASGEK

human TRPV1 H^+ (max % remain) (human TRPV1 [1]) | IC50 (human TRPV1 [2]) | SMILES
0% | 169 nM | CCC1(CC)C[C@@H](NC(=O)Nc2ccc3c(c2)NC(=O)N(CCO)C3)c2ccc(Cl)cc2O1 [Example 47, 1-[(4R)-7-chloro-2,2-diethyl-3,4-dihydro-2H-chromen-4-yl]-3-[3-(2-hydroxyethyl)-2-oxo-1,2,3,4-tetrahydroquinazolin-7-yl]urea]
1% | 21 nM | CC1(C)C[C@@H](NC(=O)Nc2ccc3c(c2)NC(=O)N(CCO)C3)c2ccc(C(F)(F)F)cc2O1 [Example 48, 1-[(4R)-2,2-dimethyl-7-(trifluoromethyl)-3,4-dihydro-2H-chromen-4-yl]-3-[3-(2-hydroxyethyl)-2-oxo-1,2,3,4-tetrahydroquinazolin-7-yl]urea]
8% | 6100 nM | O=C(Nc1ccc2c(c1)NC(=O)N(CCO)C2)N[C@@H]1CC(CF)(CF)Oc2ccc(F)cc21 [Example 49, 1-[(4R)-6-fluoro-2,2-bis(fluoromethyl)-3,4-dihydro-2H-chromen-4-yl]-3-[3-(2-hydroxyethyl)-2-oxo-1,2,3,4-tetrahydroquinazolin-7-yl]urea]
0% | 45 nM | CCC1(CC)C[C@@H](NC(=O)Nc2ccc3c(c2)NC(=O)N(CCO)C3)c2cc(F)ccc2O1 [Example 50, 1-[(4R)-2,2-diethyl-6-fluoro-3,4-dihydro-2H-chromen-4-yl]-3-[3-(2-hydroxyethyl)-2-oxo-1,2,3,4-tetrahydroquinazolin-7-yl]urea]
10% | 330 nM | CC1(C)C[C@@H](NC(=O)Nc2ccc3c(c2)NC(=O)N(CCO)C3)c2cc(F)ccc2O1 [Example 51, 1-[(4R)-6-fluoro-2,2-dimethyl-3,4-dihydro-2H-chromen-4-yl]-3-[3-(2-hydroxyethyl)-2-oxo-1,2,3,4-tetrahydroquinazolin-7-yl]urea]
32% | 950 nM | O=C(Nc1ccc2c(c1)NC(=O)N(CCO)C2)N[C@@H]1CCOc2ccc(F)cc21 [Example 52, 1-[(4R)-6-fluoro-3,4-dihydro-2H-chromen-4-yl]-3-[3-(2-hydroxyethyl)-2-oxo-1,2,3,4-tetrahydroquinazolin-7-yl]urea]
1% | 1800 nM | O=C(Nc1ccc2c(c1)NC(=O)N(CCO)C2)N[C@@H]1CCOc2c1cccc2C(F)(F)F [Example 53, 1-[3-(2-hydroxyethyl)-2-oxo-1,2,3,4-tetrahydroquinazolin-7-yl]-3-[(4R)-8-(trifluoromethyl)-3,4-dihydro-2H-chromen-4-yl]urea]
1% | 260 nM | O=C(Nc1ccc2c(c1)NC(=O)N(CCO)C2)N[C@@H]1CCOc2cc(C(F)(F)F)ccc21 [Example 54, 1-[3-(2-hydroxyethyl)-2-oxo-1,2,3,4-tetrahydroquinazolin-7-yl]-3-[(4R)-7-(trifluoromethyl)-3,4-dihydro-2H-chromen-4-yl]urea]
36% | 7300 nM | O=C(Nc1ccc2c(c1)NC(=O)N(CCO)C2)N[C@@H]1CCc2cc(F)ccc21 [Example 55, 1-[(1R)-5-fluoro-2,3-dihydro-1H-inden-1-yl]-3-[3-(2-hydroxyethyl)-2-oxo-1,2,3,4-tetrahydroquinazolin-7-yl]urea]
67% | 700 nM | O=C(Nc1ccc2c(c1)NC(=O)N(CCO)C2)N[C@H]1CC2(CCC2)Oc2ccc(F)cc21 [Example 56, 1-[(4S)-6-fluoro-3,4-dihydrospiro[chromene-2,1′-cyclobutan]-4-yl]-3-[3-(2-hydroxyethyl)-2-oxo-1,2,3,4-tetrahydroquinazolin-7-yl]urea]
43% | 380 nM | CC1(C)C[C@H](NC(=O)Nc2ccc3c(c2)NC(=O)N(CCO)C3)c2cc(F)ccc2O1 [Example 57, 1-[(4S)-6-fluoro-2,2-dimethyl-3,4-dihydro-2H-chromen-4-yl]-3-[3-(2-hydroxyethyl)-2-oxo-1,2,3,4-tetrahydroquinazolin-7-yl]urea]
2% | 63 nM | C[C@@]1(CF)C[C@@H](NC(=O)Nc2ccc3c(c2)NC(=O)N(CCO)C3)c2ccc(C(F)(F)F)cc2O1 [Example 58, 1-[(2S,4R)-2-(fluoromethyl)-2-methyl-7-(trifluoromethyl)-3,4-dihydro-2H-chromen-4-yl]-3-[3-(2-hydroxyethyl)-2-oxo-1,2,3,4-tetrahydroquinazolin-7-yl]urea]
2% | 1500 nM | C[C@@]1(CF)C[C@@H](NC(=O)Nc2ccc3c(c2)NC(=O)N(CCO)C3)c2ccc(Cl)cc2O1 [Example 59, 1-[(2S,4R)-7-chloro-2-(fluoromethyl)-2-methyl-3,4-dihydro-2H-chromen-4-yl]-3-[3-(2-hydroxyethyl)-2-oxo-1,2,3,4-tetrahydroquinazolin-7-yl]urea]
9% | 1300 nM | C[C@]1(C(F)F)C[C@@H](NC(=O)Nc2ccc3c(c2)NC(=O)N(CCO)C3)c2ccccc2O1 [Example 60, 1-[(2R,4R)-2-(difluoromethyl)-2-methyl-3,4-dihydro-2H-chromen-4-yl]-3-[3-(2-hydroxyethyl)-2-oxo-1,2,3,4-tetrahydroquinazolin-7-yl]urea]
2% | 1200 nM | CC1(C)C[C@@H](NC(=O)Nc2ccc3c(c2)NC(=O)N(CCO)C3)c2ccc(Cl)c(F)c2O1 [Example 61, 1-[(4R)-7-chloro-8-fluoro-2,2-dimethyl-3,4-dihydro-2H-chromen-4-yl]-3-[3-(2-hydroxyethyl)-2-oxo-1,2,3,4-tetrahydroquinazolin-7-yl]urea]
9% | 1500 nM | CC1(C)C[C@@H](NC(=O)Nc2ccc3c(c2)NC(=O)N(CCO)C3)c2ccc(C(F)(F)F)nc2O1 [Example 62, 1-[(4R)-2,2-dimethyl-7-(trifluoromethyl)-3,4-dihydro-2H-pyrano[2,3-b]pyridin-4-yl]-3-[3-(2-hydroxyethyl)-2-oxo-1,2,3,4-tetrahydroquinazolin-7-yl]urea]
3% | 97 nM | CC1(C)C[C@@H](NC(=O)Nc2ccc3c(c2)NC(=O)N(CCO)C3)c2ccc(Br)cc2O1 [Example 63, 1-[(4R)-7-bromo-2,2-dimethyl-3,4-dihydro-2H-chromen-4-yl]-3-[3-(2-hydroxyethyl)-2-oxo-1,2,3,4-tetrahydroquinazolin-7-yl]urea]
